# Measurements taken from PMC5562545 (Journal of molecular biology, 2017).
# Biological target: WT PA channel (Bacillus anthracis, UniProt P13423)
# Format: biochemical
# Sequence of WT PA channel (P13423 197-764 limits assumed): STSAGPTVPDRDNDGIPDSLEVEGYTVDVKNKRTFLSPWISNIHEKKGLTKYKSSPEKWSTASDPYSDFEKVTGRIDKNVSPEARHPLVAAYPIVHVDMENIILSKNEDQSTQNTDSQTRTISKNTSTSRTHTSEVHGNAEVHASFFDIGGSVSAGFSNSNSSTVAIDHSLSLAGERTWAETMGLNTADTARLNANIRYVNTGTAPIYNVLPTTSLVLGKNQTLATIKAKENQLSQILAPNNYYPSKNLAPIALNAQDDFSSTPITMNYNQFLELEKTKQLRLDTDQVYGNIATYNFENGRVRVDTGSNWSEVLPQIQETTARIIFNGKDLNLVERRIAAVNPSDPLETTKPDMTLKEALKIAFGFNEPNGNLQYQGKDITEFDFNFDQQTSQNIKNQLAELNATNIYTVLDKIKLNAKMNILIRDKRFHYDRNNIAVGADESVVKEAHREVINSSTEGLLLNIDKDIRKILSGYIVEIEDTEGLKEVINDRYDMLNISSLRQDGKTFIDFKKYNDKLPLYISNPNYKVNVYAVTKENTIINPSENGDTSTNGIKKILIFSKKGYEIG
Substance,dissociation to the cis side slower than L-Trp (pH 5.6),relative rate of dissociation to the cis side (in words) (pH 5.6),translocation slower than L-Trp (pH 5.6),duration of the I2/B oscillation among guest–host peptides,oscillation between conductance states during translocation,translocation (in words) (pH 5.6),"translocation faster than D,L-Trp and D-Trp peptides (pH 5.6) [fold]",translocation faster than the HBS stapled peptide (pH 5.6)
D-Trp,~ 20 fold,dissociated the slowest,~ 10 fold,–,–,–,–,–
L-Trp,–,dissociated the fastest,–,longest durations,exhibited an oscillation between the I2 and B,translocated the fastest,10,~ 100 fold
